Source: ChEMBL document CHEMBL5649169 (ChemMedChem, 2018)

Experiments:
[1] = molecular target: Ephrin type-B receptor 3 (Homo sapiens) (UniProt P54753)
[2] = molecular target: Iron-sulfur clusters transporter ABCB7, mitochondrial (Homo sapiens) (UniProt O75027)
[3] = molecular target: Rho guanine nucleotide exchange factor 2 (Homo sapiens) (UniProt Q92974)
[4] = molecular target: Protein cholesin (Homo sapiens) (UniProt Q9BRJ6)
[5] = molecular target: Cytochrome c oxidase subunit 5A, mitochondrial (Homo sapiens) (UniProt P20674)
Sequence of Cytochrome c oxidase subunit 5A, mitochondrial (Homo sapiens) (P20674 whole entry): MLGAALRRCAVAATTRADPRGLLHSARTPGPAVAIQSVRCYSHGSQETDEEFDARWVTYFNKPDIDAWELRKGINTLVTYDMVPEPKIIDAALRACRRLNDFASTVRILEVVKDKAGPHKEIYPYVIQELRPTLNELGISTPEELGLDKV

[6] = molecular target: DDB1- and CUL4-associated factor 7 (Homo sapiens) (UniProt P61962)
[7] = molecular target: DNA damage-binding protein 1 (Homo sapiens) (UniProt Q16531)
[8] = molecular target: Alpha-enolase (Homo sapiens) (UniProt P06733)
[9] = molecular target: Bifunctional glutamate/proline--tRNA ligase (Homo sapiens) (UniProt P07814)
Sequence of Bifunctional glutamate/proline--tRNA ligase (Homo sapiens) (P07814 whole entry): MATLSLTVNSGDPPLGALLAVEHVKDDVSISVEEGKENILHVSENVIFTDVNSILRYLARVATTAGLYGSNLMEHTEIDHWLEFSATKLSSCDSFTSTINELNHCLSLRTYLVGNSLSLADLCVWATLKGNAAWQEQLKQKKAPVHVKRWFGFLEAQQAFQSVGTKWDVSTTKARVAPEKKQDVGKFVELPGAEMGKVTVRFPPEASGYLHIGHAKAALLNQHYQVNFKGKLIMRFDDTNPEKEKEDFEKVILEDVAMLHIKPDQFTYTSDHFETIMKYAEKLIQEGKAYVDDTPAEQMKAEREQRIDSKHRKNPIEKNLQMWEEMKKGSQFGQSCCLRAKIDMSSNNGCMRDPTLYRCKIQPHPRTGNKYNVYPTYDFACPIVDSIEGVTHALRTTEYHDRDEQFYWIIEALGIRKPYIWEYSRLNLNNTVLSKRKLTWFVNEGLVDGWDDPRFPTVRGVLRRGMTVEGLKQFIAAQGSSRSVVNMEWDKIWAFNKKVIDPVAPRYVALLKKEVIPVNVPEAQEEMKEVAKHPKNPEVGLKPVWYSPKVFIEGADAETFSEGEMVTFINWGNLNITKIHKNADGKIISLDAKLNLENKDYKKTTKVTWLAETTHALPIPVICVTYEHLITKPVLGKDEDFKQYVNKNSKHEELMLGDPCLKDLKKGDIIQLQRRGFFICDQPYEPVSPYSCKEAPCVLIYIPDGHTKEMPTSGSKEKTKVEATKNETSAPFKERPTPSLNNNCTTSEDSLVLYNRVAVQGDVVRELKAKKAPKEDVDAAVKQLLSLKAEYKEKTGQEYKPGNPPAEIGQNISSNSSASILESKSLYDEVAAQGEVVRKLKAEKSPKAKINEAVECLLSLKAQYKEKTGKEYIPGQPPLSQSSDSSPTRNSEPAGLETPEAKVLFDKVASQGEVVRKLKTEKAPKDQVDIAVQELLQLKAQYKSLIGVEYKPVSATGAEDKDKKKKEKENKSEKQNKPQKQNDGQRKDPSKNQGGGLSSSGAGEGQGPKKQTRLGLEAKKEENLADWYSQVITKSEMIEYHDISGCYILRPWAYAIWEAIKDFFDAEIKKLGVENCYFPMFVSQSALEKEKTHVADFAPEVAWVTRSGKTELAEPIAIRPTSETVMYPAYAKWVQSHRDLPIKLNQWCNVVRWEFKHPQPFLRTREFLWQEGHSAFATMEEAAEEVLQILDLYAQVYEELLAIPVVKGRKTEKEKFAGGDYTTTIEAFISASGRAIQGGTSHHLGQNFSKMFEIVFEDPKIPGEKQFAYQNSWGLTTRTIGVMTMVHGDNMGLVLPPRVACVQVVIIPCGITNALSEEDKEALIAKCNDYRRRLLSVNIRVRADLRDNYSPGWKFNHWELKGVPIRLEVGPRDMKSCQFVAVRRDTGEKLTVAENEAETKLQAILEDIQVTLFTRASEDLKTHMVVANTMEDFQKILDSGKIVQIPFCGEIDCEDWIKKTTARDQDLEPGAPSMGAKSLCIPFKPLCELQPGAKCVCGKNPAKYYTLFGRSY

[10] = molecular target: Fanconi anemia group I protein (Homo sapiens) (UniProt Q9NVI1)
[11] = molecular target: Ubiquitin-like FUBI-ribosomal protein eS30 fusion protein (Homo sapiens) (UniProt P62861)
[12] = molecular target: Ferrochelatase, mitochondrial (Homo sapiens) (UniProt P22830)
[13] = molecular target: Glutathione reductase, mitochondrial (Homo sapiens) (UniProt P00390)
[14] = molecular target: Heterogeneous nuclear ribonucleoproteins C1/C2 (Homo sapiens) (UniProt P07910)
[15] = molecular target: Heterogeneous nuclear ribonucleoprotein U-like protein 1 (Homo sapiens) (UniProt Q9BUJ2)
[16] = molecular target: Insulin receptor (Homo sapiens) (UniProt P06213)
[17] = molecular target: Importin-4 (Homo sapiens) (UniProt Q8TEX9)
[18] = molecular target: Leucine-rich repeat-containing protein 59 (Homo sapiens) (UniProt Q96AG4)
Sequence of Leucine-rich repeat-containing protein 59 (Homo sapiens) (Q96AG4 whole entry): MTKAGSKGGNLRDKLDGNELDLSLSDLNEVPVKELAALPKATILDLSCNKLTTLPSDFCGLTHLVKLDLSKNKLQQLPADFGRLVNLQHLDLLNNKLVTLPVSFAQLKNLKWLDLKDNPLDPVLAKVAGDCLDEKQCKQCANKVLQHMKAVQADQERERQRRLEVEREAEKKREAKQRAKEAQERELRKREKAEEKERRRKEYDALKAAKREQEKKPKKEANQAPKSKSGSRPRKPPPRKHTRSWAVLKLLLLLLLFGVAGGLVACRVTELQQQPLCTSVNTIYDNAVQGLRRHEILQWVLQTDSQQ

[19] = molecular target: ATP synthase F(0) complex subunit a (Homo sapiens) (UniProt P00846)
Sequence of ATP synthase F(0) complex subunit a (Homo sapiens) (P00846 whole entry, one chain of several): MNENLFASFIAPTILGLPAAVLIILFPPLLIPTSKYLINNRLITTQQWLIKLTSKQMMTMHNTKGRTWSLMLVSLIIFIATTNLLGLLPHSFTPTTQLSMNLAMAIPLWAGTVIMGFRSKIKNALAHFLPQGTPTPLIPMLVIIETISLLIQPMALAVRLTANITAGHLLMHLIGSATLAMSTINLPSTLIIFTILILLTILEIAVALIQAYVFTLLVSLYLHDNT

[20] = molecular target: Serine/threonine-protein kinase Nek7 (Homo sapiens) (UniProt Q8TDX7)
[21] = molecular target: Nuclear pore complex protein Nup93 (Homo sapiens) (UniProt Q8N1F7)
[22] = molecular target: Protein disulfide-isomerase (Homo sapiens) (UniProt P07237)
Sequence of Protein disulfide-isomerase (Homo sapiens) (P07237 18-508 limits assumed): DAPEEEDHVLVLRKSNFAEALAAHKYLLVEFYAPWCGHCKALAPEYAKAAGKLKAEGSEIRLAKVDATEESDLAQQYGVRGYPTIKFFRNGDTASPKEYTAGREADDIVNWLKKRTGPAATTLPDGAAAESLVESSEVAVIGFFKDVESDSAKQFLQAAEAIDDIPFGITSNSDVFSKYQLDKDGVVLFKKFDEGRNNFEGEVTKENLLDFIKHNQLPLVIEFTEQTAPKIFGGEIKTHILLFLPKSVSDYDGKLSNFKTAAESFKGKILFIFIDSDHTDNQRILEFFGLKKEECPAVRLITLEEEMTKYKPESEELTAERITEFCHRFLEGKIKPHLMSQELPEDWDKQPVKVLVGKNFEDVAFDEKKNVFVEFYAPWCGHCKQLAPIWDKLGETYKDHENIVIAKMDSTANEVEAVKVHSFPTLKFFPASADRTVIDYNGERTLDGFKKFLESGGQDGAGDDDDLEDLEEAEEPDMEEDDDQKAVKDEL

[23] = molecular target: Polyadenylate-binding protein 1 (Homo sapiens) (UniProt P11940)
Sequence of Polyadenylate-binding protein 1 (Homo sapiens) (P11940 whole entry): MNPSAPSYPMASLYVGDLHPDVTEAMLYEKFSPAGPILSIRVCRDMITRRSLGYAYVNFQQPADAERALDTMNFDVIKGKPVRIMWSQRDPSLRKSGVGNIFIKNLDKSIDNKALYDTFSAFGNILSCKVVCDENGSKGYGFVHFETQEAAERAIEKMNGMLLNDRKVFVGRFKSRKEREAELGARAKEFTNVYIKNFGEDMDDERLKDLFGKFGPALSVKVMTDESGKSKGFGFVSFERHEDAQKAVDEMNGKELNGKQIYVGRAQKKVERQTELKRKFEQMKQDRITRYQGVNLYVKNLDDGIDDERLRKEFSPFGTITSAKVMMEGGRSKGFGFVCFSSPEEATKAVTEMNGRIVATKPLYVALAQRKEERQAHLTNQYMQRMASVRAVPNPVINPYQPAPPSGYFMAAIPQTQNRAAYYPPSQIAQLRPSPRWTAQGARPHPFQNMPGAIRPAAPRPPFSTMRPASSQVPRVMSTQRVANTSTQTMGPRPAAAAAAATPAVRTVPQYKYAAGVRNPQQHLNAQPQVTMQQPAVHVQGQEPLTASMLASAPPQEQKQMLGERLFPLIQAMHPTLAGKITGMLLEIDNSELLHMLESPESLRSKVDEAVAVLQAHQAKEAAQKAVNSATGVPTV

[24] = molecular target: Bifunctional phosphoribosylaminoimidazole carboxylase/phosphoribosylaminoimidazole succinocarboxamide synthetase (Homo sapiens) (UniProt P22234)
[25] = molecular target: Phosphatidylinositol transfer protein beta isoform (Homo sapiens) (UniProt P48739)
Sequence of Phosphatidylinositol transfer protein beta isoform (Homo sapiens) (P48739 whole entry, canonical isoform): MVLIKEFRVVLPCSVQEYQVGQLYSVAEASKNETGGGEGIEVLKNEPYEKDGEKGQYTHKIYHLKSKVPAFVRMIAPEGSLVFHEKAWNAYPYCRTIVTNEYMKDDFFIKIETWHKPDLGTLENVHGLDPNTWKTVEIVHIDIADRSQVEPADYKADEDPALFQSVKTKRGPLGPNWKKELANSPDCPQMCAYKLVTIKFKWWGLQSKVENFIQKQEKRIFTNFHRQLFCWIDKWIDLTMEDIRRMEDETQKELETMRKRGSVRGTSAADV

[26] = molecular target: Peptidyl-prolyl cis-trans isomerase H (Homo sapiens) (UniProt O43447)
[27] = molecular target: 26S proteasome regulatory subunit 7 (Homo sapiens) (UniProt P35998)
[28] = molecular target: Glutamine--tRNA ligase (Homo sapiens) (UniProt P47897)
[29] = molecular target: Ras-related protein Rab-5C (Homo sapiens) (UniProt P51148)
[30] = molecular target: Receptor-interacting serine/threonine-protein kinase 2 (Homo sapiens) (UniProt O43353)
Sequence of Receptor-interacting serine/threonine-protein kinase 2 (Homo sapiens) (O43353 whole entry): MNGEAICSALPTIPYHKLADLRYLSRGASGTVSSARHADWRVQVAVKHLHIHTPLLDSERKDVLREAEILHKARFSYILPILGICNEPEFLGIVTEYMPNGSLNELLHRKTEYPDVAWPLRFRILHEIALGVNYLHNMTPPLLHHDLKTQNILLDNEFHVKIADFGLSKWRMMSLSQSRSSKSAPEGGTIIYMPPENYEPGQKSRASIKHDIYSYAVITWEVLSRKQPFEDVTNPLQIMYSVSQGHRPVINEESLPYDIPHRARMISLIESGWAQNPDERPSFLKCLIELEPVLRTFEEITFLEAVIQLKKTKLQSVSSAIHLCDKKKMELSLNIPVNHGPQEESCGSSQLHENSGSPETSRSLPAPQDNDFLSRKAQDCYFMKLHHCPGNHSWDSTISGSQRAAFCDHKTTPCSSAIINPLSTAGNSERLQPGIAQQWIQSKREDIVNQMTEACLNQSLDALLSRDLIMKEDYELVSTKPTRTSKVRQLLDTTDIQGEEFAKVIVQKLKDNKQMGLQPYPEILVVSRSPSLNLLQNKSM

[31] = molecular target: Small ribosomal subunit protein eS12 (Homo sapiens) (UniProt P25398)
[32] = molecular target: Protein transport protein Sec16A (Homo sapiens) (UniProt O15027)
[33] = molecular target: ADP/ATP translocase 1 (Homo sapiens) (UniProt P12235)
[34] = molecular target: Staphylococcal nuclease domain-containing protein 1 (Homo sapiens) (UniProt Q7KZF4)
[35] = molecular target: Signal recognition particle 9 kDa protein (Homo sapiens) (UniProt P49458)
[36] = molecular target: Serine/arginine-rich splicing factor 3 (Homo sapiens) (UniProt P84103)
[37] = molecular target: Serine/threonine-protein kinase 16 (Homo sapiens) (UniProt O75716)
[38] = molecular target: TBC1 domain family member 5 (Homo sapiens) (UniProt Q92609)
[39] = molecular target: Putative divalent cation/proton antiporter TMEM165 (Homo sapiens) (UniProt Q9HC07)
Sequence of Putative divalent cation/proton antiporter TMEM165 (Homo sapiens) (Q9HC07 whole entry, canonical isoform): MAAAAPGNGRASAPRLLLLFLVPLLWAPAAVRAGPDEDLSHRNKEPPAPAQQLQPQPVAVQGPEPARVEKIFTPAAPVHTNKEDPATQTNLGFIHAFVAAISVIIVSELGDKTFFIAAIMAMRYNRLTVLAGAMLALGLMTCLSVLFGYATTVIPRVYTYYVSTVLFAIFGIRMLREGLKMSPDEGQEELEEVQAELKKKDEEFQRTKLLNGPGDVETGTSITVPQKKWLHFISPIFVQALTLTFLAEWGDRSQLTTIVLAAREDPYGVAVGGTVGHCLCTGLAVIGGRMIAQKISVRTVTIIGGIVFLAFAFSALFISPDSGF

[40] = molecular target: Lamina-associated polypeptide 2, isoform alpha (Homo sapiens) (UniProt P42166)
[41] = molecular target: Triosephosphate isomerase (Homo sapiens) (UniProt P60174)
Sequence of Triosephosphate isomerase (Homo sapiens) (P60174 whole entry): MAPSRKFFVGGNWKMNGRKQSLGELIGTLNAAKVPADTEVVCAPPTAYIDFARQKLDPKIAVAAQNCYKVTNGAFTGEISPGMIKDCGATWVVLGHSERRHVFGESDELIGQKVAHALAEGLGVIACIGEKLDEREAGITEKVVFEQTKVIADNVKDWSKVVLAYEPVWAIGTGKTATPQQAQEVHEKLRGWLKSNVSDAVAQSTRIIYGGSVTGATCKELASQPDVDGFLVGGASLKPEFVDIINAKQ

[42] = molecular target: Protein unc-119 homolog A (Homo sapiens) (UniProt Q13432)
[43] = molecular target: Non-selective voltage-gated ion channel VDAC3 (Homo sapiens) (UniProt Q9Y277)
[44] = molecular target: Vacuolar protein sorting-associated protein 35 (Homo sapiens) (UniProt Q96QK1)
[45] = molecular target: WD repeat-containing protein 5 (Homo sapiens) (UniProt P61964)
Also: assay method not described here.

Sequence of Protein cholesin (Homo sapiens) (Q9BRJ6 whole entry): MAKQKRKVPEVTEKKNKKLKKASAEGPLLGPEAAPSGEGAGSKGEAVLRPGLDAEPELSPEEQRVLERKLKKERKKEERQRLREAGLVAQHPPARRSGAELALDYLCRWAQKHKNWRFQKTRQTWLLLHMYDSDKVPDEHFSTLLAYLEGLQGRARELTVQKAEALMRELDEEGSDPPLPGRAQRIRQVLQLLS

**Q.** What does the source list for Cc1ccc(C(=O)Nc2cccc(C(F)(F)F)c2)cc1Nc1nc(-c2cccnc2)nc2c1cnn2C?
**A.** ED50 [1]: 2.64 µM; ED50 [2]: 0.0622 µM; ED50 [3]: 9.51 µM; ED50 [4]: 0.0151 µM; ED50 [5]: 3.62 µM; ED50 [6]: 1.12 µM; ED50 [7]: 0.122 µM; ED50 (Homo sapiens): 2.74 µM; ED50 [8]: 4.37 µM; ED50 [9]: 0.0324 µM; ED50 [10]: 13 µM; ED50 [11]: 0.562 µM; ED50 [12]: 2.92 µM; ED50 [13]: 8.81 µM; ED50 [14]: 0.127 µM; ED50 [15]: 0.922 µM; ED50 [16]: 0.163 µM; ED50 [17]: 6.36 µM; ED50 [18]: 0.163 µM; ED50 [19]: 0.677 µM; ED50 [20]: 0.46 µM; ED50 [21]: 3.25 µM; ED50 [22]: 4.25 µM; ED50 [23]: 3.36 µM; ED50 [24]: 0.0205 µM; ED50 [25]: 1.71 µM; ED50 [26]: 2.05 µM; ED50 [27]: 84.1 µM; ED50 [28]: 0.107 µM; ED50 [29]: 19.2 µM; ED50 [30]: 29.5 µM; ED50 [31]: 0.171 µM; ED50 [32]: 0.00675 µM; ED50 [33]: 1.74 µM; ED50 [34]: 23.6 µM; ED50 [35]: 5.32 µM; ED50 [36]: 1.06 µM; ED50 [37]: 0.13 µM; ED50 [38]: 24 µM; ED50 [39]: 8.83 µM; ED50 [40]: 3.35 µM; ED50 [41]: 0.183 µM; ED50 [42]: 0.46 µM; ED50 [43]: 0.745 µM; ED50 [44]: 15.7 µM; ED50 [45]: 0.0527 µM

**Q.** Cc1ccc(C(=O)Nc2cccc(C(F)(F)F)c2)cc1Nc1nc(-c2cccnc2)nc2nn(C)cc12 was tested. Which ED50 [1] did it give?
**A.** 7.41 µM

**Q.** What about the ED50 [2] of the same compound?
**A.** 0.0289 µM

**Q.** What about the ED50 [3] of the same compound?
**A.** 0.0484 µM

**Q.** And the ED50 [4]?
**A.** 39.4 µM

**Q.** What about the ED50 [5] of the same compound?
**A.** 3250 µM

**Q.** What about the ED50 [6] of the same compound?
**A.** 0.184 µM

**Q.** What about the ED50 [7] of the same compound?
**A.** 0.139 µM

**Q.** And the ED50 (Homo sapiens)?
**A.** 0.0747 µM

**Q.** And the ED50 [8]?
**A.** 0.053 µM

**Q.** What about the ED50 [9] of the same compound?
**A.** 1.21 µM

**Q.** And the ED50 [10]?
**A.** 2.2 µM

**Q.** What about the ED50 [11] of the same compound?
**A.** 12.4 µM

**Q.** And the ED50 [12]?
**A.** 8.18 µM

**Q.** And the ED50 [13]?
**A.** 24.7 µM

**Q.** And the ED50 [14]?
**A.** 7.54 µM

**Q.** What about the ED50 [15] of the same compound?
**A.** 2.56 µM

**Q.** What about the ED50 [16] of the same compound?
**A.** 0.00863 µM

**Q.** What about the ED50 [17] of the same compound?
**A.** 1810 µM

**Q.** What about the ED50 [18] of the same compound?
**A.** 0.0082 µM

**Q.** And the ED50 [19]?
**A.** 0.622 µM

**Q.** And the ED50 [20]?
**A.** 0.203 µM

**Q.** What about the ED50 [21] of the same compound?
**A.** 1.55 µM

**Q.** And the ED50 [22]?
**A.** 11.7 µM

**Q.** What about the ED50 [23] of the same compound?
**A.** 10.7 µM

**Q.** What about the ED50 [24] of the same compound?
**A.** 0.0548 µM

**Q.** And the ED50 [25]?
**A.** 1.13 µM

**Q.** What about the ED50 [26] of the same compound?
**A.** 0.0325 µM

**Q.** What about the ED50 [27] of the same compound?
**A.** 232 µM

**Q.** What about the ED50 [28] of the same compound?
**A.** 17 µM

**Q.** What about the ED50 [29] of the same compound?
**A.** 13.9 µM

**Q.** And the ED50 [30]?
**A.** 0.073 µM

**Q.** What about the ED50 [31] of the same compound?
**A.** 0.254 µM

**Q.** And the ED50 [32]?
**A.** 0.0052 µM

**Q.** And the ED50 [33]?
**A.** 107 µM

**Q.** And the ED50 [34]?
**A.** 0.57 µM

**Q.** And the ED50 [35]?
**A.** 2440 µM

**Q.** And the ED50 [36]?
**A.** 0.0813 µM

**Q.** And the ED50 [37]?
**A.** 0.0232 µM

**Q.** What about the ED50 [38] of the same compound?
**A.** 0.0265 µM

**Q.** What about the ED50 [39] of the same compound?
**A.** 0.0171 µM

**Q.** And the ED50 [40]?
**A.** 6.61 µM

**Q.** And the ED50 [41]?
**A.** 0.0625 µM

**Q.** What about the ED50 [42] of the same compound?
**A.** 47.8 µM

**Q.** What about the ED50 [43] of the same compound?
**A.** 0.0233 µM

**Q.** And the ED50 [44]?
**A.** 0.0256 µM

**Q.** What about the ED50 [45] of the same compound?
**A.** 0.0363 µM
